This note sets out measurements from ChEMBL document CHEMBL1150977, “A quantitative analysis of kinase inhibitor selectivity” (Nat Biotechnol, 2008).

The target in assay [1] is LIM domain kinase 2 (Homo sapiens, UniProt P53671).
For assay [2], the target named is T1, Aurora kinase C (Homo sapiens, UniProt Q9UQB9).
T1 sequence (Q9UQB9 whole entry): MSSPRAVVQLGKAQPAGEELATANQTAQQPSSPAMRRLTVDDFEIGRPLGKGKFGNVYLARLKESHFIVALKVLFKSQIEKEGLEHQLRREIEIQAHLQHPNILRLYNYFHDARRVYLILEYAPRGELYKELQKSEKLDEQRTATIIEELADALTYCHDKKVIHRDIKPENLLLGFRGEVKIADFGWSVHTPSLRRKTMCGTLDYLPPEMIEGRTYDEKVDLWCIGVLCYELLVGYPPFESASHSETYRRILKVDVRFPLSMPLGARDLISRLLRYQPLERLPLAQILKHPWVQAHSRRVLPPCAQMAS

Assay [3] has as its target Activin receptor type-1-like (Homo sapiens, UniProt P37023).
Assay [4] concerns the target Macrophage colony-stimulating factor 1 receptor (Homo sapiens, UniProt P07333).
Assay [5] deals with MAP kinase-activated protein kinase 2 (Homo sapiens, UniProt P49137).
Sequence of MAP kinase-activated protein kinase 2 (P49137 whole entry): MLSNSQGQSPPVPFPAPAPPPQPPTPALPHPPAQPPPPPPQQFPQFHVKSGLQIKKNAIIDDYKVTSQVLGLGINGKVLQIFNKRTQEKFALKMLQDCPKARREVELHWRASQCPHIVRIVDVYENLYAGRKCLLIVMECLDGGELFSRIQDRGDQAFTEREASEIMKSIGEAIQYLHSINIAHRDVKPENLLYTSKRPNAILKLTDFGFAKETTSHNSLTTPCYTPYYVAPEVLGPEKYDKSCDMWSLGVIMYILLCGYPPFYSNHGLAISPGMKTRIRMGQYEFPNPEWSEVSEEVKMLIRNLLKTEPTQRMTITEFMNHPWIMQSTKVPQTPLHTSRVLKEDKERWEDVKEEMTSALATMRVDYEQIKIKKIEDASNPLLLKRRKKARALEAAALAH
Assay [6] has as its target T2, Serine/threonine-protein kinase RIO1 (Homo sapiens, UniProt Q9BRS2).
T2 sequence (Q9BRS2 whole entry): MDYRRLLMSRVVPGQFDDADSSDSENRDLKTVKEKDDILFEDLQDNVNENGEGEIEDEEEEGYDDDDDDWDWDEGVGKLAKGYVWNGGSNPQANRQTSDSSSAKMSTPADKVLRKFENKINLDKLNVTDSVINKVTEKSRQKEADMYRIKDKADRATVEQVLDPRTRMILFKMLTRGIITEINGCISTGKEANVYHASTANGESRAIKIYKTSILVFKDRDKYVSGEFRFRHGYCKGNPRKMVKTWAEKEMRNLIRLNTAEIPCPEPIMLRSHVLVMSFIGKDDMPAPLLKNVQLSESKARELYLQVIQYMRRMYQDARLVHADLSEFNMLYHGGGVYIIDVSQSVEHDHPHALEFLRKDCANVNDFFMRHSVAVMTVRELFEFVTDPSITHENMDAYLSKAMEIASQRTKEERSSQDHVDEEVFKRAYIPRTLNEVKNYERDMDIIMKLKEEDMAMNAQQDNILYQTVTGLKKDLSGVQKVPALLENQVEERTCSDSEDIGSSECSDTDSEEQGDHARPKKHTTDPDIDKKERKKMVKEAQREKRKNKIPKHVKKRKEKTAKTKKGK

Assay [7] has as its target Ribosomal protein S6 kinase alpha-6 (Homo sapiens, UniProt Q9UK32).
For assay [8], the target named is Tyrosine-protein kinase Fyn (Homo sapiens, UniProt P06241).
The target in assay [9] is Hepatocyte growth factor receptor (Homo sapiens, UniProt P08581).
Assay [10] concerns the target T3, MAP kinase-activated protein kinase 5 (Homo sapiens, UniProt Q8IW41).
T3 sequence (Q8IW41 whole entry): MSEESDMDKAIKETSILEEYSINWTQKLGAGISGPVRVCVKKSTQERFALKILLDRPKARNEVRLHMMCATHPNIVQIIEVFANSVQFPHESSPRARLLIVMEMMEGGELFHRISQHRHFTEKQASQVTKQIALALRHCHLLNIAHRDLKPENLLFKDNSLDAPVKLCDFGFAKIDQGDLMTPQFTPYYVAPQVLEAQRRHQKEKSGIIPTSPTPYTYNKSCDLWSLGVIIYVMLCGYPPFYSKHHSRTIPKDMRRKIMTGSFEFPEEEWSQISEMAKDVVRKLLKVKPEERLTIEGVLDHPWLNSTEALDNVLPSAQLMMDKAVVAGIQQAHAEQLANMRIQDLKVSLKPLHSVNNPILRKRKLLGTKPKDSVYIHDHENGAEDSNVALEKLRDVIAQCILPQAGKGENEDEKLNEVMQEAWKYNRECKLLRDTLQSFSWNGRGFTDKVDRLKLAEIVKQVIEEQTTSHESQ

The target of assay [11] is Ribosomal protein S6 kinase alpha-4 (Homo sapiens, UniProt O75676).
For assay [12], the target named is Tyrosine-protein kinase FRK (Homo sapiens, UniProt P42685).
Sequence of Tyrosine-protein kinase FRK (P42685 whole entry, canonical isoform): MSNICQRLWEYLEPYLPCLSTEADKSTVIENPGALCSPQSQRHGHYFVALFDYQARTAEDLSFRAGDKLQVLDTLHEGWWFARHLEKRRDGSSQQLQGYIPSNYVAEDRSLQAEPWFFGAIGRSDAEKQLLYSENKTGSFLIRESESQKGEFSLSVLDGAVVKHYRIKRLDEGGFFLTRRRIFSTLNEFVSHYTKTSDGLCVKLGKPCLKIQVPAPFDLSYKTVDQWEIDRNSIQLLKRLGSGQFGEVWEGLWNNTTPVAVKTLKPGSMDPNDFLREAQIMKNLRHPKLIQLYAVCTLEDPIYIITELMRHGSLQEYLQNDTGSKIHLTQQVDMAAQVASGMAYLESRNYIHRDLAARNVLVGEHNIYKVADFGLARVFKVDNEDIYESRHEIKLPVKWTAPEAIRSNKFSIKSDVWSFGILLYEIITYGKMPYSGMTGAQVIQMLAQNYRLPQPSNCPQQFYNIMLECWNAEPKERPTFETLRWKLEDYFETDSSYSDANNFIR
In assay [13] the target is T4, Phosphorylase b kinase gamma catalytic chain, liver/testis isoform (Homo sapiens, UniProt P15735).
T4 sequence (P15735 whole entry): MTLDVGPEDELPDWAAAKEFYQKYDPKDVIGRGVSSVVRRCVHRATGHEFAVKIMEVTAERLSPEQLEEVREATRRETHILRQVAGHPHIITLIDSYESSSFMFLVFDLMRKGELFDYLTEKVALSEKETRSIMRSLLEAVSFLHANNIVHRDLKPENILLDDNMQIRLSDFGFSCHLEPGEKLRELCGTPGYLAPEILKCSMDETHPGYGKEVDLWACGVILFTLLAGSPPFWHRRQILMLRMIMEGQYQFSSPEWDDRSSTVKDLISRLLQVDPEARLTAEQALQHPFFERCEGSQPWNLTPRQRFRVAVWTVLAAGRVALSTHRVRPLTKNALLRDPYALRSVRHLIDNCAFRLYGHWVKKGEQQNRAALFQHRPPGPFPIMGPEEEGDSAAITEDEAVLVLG

Assay [14] concerns the target Mitogen-activated protein kinase 7 (Homo sapiens, UniProt Q13164).
In assay [15] the target is 5'-AMP-activated protein kinase catalytic subunit alpha-1 (Homo sapiens, UniProt Q13131).
Sequence of 5'-AMP-activated protein kinase catalytic subunit alpha-1 (Q13131 whole entry): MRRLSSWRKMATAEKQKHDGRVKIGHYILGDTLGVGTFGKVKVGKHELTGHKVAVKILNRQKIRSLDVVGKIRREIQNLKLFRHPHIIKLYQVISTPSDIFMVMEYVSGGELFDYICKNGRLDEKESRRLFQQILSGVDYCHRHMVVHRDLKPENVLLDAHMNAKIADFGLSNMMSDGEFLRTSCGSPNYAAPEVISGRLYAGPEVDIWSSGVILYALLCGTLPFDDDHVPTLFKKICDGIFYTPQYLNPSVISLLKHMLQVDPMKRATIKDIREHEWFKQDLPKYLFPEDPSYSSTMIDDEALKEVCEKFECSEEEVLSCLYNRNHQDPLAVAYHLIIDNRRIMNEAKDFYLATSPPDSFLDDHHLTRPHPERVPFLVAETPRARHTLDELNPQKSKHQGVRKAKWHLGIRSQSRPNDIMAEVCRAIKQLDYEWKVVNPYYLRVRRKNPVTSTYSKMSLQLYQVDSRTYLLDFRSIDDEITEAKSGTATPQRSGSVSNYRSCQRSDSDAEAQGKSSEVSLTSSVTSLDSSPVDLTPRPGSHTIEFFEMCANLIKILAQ
Assay [16] deals with Tyrosine-protein kinase Blk (Homo sapiens, UniProt P51451).
In assay [17] the target is Cyclin-dependent kinase 19 (Homo sapiens, UniProt Q9BWU1).
Sequence of Cyclin-dependent kinase 19 (Q9BWU1 whole entry): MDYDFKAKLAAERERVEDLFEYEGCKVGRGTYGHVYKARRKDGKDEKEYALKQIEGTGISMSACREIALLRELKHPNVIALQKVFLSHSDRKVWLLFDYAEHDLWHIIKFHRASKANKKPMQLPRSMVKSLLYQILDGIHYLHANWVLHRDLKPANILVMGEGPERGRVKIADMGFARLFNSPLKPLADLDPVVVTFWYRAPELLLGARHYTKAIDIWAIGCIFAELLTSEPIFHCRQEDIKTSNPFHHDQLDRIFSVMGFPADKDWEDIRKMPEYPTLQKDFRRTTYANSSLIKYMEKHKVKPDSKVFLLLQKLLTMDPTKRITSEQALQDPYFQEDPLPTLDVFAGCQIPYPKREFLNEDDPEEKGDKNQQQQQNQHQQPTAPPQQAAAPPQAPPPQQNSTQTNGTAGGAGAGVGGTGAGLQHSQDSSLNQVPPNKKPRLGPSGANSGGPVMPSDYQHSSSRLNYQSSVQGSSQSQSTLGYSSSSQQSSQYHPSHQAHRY

Broadly, the Kd is the free concentration of one partner at which half of the binding sites on the other are occupied at equilibrium, for simple one-to-one binding. A high value points to a looser complex.

Sequence of Ribosomal protein S6 kinase alpha-6 (Q9UK32 whole entry): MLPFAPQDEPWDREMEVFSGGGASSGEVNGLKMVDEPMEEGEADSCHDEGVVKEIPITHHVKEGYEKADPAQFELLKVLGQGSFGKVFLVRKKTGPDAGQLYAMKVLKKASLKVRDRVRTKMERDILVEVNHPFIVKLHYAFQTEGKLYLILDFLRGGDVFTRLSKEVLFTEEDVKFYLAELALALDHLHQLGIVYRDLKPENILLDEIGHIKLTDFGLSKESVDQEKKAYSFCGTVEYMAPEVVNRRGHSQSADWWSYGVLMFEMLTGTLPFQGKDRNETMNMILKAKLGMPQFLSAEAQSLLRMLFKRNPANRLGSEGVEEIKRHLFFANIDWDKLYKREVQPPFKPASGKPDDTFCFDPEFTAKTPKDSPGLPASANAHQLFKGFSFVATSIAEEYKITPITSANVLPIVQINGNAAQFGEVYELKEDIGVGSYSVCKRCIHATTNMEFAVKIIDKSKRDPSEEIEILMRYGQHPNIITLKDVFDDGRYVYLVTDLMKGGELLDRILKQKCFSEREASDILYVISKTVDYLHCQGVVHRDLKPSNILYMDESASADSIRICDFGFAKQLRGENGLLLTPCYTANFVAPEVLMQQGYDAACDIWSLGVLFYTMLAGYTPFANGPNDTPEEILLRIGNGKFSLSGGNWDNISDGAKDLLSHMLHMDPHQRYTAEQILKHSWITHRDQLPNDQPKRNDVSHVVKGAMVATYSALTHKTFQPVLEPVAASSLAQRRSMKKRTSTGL
Sequence of Macrophage colony-stimulating factor 1 receptor (P07333 whole entry): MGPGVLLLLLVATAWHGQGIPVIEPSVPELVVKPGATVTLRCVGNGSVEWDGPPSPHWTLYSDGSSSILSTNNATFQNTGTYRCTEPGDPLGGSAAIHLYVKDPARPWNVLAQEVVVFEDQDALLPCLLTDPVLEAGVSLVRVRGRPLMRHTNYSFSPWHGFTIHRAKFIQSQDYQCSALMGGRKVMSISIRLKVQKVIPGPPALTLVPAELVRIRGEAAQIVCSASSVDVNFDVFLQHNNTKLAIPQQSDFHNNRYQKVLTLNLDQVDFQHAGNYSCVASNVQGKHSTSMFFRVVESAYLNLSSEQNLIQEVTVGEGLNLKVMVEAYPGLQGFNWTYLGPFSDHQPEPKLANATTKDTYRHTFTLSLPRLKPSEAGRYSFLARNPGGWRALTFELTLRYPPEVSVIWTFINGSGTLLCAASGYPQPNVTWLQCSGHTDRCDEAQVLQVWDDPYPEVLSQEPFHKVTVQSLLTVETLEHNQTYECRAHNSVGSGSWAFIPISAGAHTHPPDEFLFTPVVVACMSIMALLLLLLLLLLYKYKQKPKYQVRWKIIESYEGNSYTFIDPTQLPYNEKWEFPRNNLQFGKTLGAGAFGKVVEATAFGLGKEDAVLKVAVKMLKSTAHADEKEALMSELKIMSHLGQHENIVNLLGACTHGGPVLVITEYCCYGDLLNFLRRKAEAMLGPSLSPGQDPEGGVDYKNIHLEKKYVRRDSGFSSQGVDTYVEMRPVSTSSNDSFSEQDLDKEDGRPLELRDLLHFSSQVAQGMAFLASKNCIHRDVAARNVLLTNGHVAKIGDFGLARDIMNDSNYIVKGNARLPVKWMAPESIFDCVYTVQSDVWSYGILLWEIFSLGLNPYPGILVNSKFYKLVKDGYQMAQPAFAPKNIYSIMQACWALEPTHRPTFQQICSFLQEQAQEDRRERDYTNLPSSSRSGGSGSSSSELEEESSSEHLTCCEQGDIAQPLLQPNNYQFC
Sequence of Mitogen-activated protein kinase 7 (Q13164 whole entry): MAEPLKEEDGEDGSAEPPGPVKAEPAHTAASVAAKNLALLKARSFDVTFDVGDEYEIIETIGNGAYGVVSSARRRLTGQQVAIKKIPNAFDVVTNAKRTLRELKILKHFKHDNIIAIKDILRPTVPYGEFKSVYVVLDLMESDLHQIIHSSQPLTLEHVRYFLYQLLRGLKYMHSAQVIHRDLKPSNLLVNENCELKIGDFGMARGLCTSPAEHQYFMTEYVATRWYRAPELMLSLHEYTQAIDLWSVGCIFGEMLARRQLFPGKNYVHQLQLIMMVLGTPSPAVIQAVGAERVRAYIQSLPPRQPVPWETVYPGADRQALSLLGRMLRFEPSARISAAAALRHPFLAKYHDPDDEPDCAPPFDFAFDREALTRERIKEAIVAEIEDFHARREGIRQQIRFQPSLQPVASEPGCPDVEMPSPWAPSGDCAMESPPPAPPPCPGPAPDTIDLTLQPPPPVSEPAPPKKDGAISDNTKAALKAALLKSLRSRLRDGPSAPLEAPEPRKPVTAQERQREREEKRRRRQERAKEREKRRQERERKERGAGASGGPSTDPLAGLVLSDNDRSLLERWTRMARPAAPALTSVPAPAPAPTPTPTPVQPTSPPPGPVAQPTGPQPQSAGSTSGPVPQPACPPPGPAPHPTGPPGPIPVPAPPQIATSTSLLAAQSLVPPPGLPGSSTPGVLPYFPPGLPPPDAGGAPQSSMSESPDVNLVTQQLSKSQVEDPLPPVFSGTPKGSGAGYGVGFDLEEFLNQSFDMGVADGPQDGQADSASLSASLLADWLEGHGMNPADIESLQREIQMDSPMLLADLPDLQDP
Sequence of Activin receptor type-1-like (P37023 whole entry): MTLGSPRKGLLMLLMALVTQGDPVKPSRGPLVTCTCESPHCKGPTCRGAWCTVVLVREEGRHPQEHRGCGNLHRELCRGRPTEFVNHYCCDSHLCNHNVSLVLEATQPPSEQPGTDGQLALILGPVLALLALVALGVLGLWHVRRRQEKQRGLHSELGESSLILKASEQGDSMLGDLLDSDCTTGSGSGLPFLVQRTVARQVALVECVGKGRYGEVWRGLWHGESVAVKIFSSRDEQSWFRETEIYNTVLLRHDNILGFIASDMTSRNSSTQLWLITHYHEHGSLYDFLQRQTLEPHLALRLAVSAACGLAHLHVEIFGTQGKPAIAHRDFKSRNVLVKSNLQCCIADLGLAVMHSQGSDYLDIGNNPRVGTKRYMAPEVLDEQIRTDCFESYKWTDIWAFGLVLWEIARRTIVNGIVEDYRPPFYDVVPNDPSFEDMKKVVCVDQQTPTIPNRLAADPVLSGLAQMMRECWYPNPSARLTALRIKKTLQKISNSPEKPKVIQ

The compound `CCN1CCN(Cc2ccc(NC(=O)Nc3ccc(Oc4cc(NC)ncn4)cc3)cc2C(F)(F)F)CC1` [AST-487] displayed a Kd in [1] above 10 µM.
In the case of `COCC(=O)NC/C=C/c1ccc2ncnc(Nc3ccc(Oc4ccc(C)nc4)c(C)c3)c2c1` [CP-724714], the Kd in assay [1], in assay [2], in assay [3], in [4], in [5] and in assay [6] was above 10 µM throughout. Besides, the Kd in [7], in assay [8], in assay [9], in [10], in [11] and in assay [12] was above 10 µM throughout. In addition, the Kd in assay [13], in [14], in assay [15] and in [16] was above 10 µM throughout.
As to `Nc1nc(Nc2ccc(S(N)(=O)=O)cc2)nn1C(=O)c1c(F)cccc1F` [JNJ-7706621], the Kd in assay [2] is 0.086 µM; in assay [5], above 10 µM; in [17], above 10 µM; in assay [10], above 10 µM; in assay [11], 3 µM; in assay [12], above 10 µM. Also, the Kd in assay [13] and in assay [16] was above 10 µM in each case.
On to `CCOc1cc2ncc(C#N)c(Nc3ccc(F)c(Cl)c3)c2cc1NC(=O)/C=C/CN(C)C` [PELITINIB], for which the Kd in assay [1], in [2], in [3], in [5], in assay [6] and in assay [7] was above 10 µM throughout. The equilibrium dissociation constant (Kd) in assay [17] is above 10 µM; in assay [9], 6.2 µM; in assay [10] it was above 10 µM; in assay [11], above 10 µM; in [13], above 10 µM; in assay [14] it was above 10 µM. Moreover, the results for the Kd in assay [15] and in [16] were above 10 µM and 0.078 µM, respectively.
Regarding `Oc1ccc(-c2nc(-c3ccncc3)c(-c3ccc(F)cc3)[nH]2)cc1` [SB-202190], the Kd in assay [1], in [2], in [3], in assay [4], in assay [5] and in [6] was above 10 µM each time. Further, the dissociation constant Kd in assay [7] is 0.27 µM; in assay [17] it was above 10 µM; in assay [8], above 10 µM; in [9], above 10 µM; in [10], above 10 µM; in [11], above 10 µM. The Kd in [12] was 3.1 µM; in assay [13], above 10 µM; in [14], above 10 µM; in [15] it was above 10 µM; in [16], above 10 µM.
`NC(=O)c1ccc(-c2nc(-c3ccc4c(c3)OCO4)c(-c3ccccn3)[nH]2)cc1` [SB-431542]: the Kd in assay [1], in assay [2], in assay [3], in assay [4], in [5] and in assay [6] was above 10 µM each time. Moreover, the dissociation constant (Kd) in [17], in assay [8], in [9], in [10], in [11] and in [12] was above 10 µM in each case. Further, the Kd in assay [13], in assay [14], in assay [15] and in assay [16] was above 10 µM in each case.
